Columns and labels:
human Nav1.5 = human Nav1.5 (Homo sapiens (Human), UniProt Q14524); assay: Human Nav1.5 inhibitory activity evaluation (automated patch clamp QPatch16X, HEK293 cells stably expressing human Nav1.5); format: cell-based
Outline: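 Whole-cell automated patch clamp at room temperature on HEK293 stably expressing human Nav1.5; holding −80 mV, 20 consecutive cardiomyocyte action-potential-like test pulses before and after compound (0.1% DMSO). Inhibition measured on inward current at 20th pulse; IC50 from concentration-response curve.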

human Nav1.7 = human Nav1.7 (Homo sapiens (Human), UniProt Q15858); assay: Human Nav1.7 inhibitory activity evaluation (automated patch clamp QPatch16X, HEK293A cells stably expressing human Nav1.7 and human Navβ1); format: cell-based
Outline: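 QPatch16X whole-cell recordings at room temperature from HEK293A cells stably expressing human Nav1.7 with Navβ1, CsF-based internal solution, pH 7.4 external, 0.1% DMSO. From −100 mV holding, protocol included a 15 s hold at a potential inactivating ~30-40% of channels; IC50 from inward current at the second −10 mV pulse.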

[1] = HEK293 cells stably expressing human Nav1.5, automated patch clamp QPatch16X
[2] = HEK293A cells stably expressing human Nav1.7 and human Navβ1, automated patch clamp QPatch16X
[3] = human Nav1.5, automated patch clamp
[4] = human Nav1.7, automated patch clamp

Sequence of human Nav1.7 (Q15858 whole entry): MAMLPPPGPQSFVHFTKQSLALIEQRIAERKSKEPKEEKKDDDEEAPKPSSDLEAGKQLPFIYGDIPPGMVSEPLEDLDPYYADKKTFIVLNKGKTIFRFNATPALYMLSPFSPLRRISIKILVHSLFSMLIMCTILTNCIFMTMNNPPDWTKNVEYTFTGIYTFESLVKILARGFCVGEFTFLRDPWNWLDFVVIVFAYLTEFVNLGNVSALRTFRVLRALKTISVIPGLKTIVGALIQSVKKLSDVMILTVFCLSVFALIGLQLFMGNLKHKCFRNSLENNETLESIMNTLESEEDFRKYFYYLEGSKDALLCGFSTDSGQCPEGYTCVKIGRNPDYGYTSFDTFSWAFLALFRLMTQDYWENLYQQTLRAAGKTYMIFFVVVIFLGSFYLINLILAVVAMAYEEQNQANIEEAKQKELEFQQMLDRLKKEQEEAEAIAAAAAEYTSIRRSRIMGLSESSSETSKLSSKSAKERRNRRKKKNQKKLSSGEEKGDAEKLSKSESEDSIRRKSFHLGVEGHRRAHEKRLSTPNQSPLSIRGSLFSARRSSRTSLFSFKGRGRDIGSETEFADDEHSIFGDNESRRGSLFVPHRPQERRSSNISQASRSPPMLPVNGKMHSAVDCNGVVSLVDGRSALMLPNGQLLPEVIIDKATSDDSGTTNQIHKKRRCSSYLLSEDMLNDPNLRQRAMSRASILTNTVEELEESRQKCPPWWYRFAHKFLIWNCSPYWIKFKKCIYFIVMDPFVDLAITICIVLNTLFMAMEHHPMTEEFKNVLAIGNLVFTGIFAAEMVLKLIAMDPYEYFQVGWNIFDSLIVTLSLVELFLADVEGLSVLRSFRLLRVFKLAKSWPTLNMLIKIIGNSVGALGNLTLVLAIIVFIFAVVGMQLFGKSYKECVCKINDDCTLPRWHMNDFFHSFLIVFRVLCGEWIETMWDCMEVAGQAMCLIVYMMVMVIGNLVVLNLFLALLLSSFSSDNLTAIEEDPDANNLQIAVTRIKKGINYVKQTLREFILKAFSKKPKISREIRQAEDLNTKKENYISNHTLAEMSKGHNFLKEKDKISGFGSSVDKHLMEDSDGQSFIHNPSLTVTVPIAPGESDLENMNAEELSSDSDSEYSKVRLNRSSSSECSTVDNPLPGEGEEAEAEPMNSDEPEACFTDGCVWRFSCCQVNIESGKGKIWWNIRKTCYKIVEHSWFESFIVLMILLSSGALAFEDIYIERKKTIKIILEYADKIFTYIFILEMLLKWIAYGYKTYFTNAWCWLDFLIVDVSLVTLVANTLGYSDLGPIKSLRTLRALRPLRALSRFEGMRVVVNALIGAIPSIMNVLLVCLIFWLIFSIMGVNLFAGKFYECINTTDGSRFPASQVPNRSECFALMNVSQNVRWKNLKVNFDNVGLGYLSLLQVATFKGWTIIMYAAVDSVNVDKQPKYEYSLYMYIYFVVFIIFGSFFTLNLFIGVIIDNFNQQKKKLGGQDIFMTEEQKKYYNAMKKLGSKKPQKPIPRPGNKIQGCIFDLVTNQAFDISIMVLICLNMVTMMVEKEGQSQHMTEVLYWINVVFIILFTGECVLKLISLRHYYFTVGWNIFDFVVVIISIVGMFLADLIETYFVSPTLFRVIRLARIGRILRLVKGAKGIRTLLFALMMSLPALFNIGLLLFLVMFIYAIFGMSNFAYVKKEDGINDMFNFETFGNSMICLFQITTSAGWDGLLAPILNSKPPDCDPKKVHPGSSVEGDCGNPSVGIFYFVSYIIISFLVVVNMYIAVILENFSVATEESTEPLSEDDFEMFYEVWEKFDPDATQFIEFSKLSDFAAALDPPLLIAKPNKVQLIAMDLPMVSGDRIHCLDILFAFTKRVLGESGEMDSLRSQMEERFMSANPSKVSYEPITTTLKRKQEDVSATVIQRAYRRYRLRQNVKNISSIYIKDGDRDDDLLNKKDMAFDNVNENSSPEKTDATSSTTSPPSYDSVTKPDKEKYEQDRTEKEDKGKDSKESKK
Sequence of human Nav1.7 (Q07699 19-218 partner): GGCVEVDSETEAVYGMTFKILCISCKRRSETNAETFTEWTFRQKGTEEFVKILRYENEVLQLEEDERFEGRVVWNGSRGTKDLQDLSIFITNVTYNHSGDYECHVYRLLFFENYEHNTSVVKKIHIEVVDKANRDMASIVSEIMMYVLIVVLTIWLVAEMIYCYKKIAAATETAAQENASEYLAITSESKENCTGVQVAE
Sequence of human Nav1.5 (Q14524 whole entry): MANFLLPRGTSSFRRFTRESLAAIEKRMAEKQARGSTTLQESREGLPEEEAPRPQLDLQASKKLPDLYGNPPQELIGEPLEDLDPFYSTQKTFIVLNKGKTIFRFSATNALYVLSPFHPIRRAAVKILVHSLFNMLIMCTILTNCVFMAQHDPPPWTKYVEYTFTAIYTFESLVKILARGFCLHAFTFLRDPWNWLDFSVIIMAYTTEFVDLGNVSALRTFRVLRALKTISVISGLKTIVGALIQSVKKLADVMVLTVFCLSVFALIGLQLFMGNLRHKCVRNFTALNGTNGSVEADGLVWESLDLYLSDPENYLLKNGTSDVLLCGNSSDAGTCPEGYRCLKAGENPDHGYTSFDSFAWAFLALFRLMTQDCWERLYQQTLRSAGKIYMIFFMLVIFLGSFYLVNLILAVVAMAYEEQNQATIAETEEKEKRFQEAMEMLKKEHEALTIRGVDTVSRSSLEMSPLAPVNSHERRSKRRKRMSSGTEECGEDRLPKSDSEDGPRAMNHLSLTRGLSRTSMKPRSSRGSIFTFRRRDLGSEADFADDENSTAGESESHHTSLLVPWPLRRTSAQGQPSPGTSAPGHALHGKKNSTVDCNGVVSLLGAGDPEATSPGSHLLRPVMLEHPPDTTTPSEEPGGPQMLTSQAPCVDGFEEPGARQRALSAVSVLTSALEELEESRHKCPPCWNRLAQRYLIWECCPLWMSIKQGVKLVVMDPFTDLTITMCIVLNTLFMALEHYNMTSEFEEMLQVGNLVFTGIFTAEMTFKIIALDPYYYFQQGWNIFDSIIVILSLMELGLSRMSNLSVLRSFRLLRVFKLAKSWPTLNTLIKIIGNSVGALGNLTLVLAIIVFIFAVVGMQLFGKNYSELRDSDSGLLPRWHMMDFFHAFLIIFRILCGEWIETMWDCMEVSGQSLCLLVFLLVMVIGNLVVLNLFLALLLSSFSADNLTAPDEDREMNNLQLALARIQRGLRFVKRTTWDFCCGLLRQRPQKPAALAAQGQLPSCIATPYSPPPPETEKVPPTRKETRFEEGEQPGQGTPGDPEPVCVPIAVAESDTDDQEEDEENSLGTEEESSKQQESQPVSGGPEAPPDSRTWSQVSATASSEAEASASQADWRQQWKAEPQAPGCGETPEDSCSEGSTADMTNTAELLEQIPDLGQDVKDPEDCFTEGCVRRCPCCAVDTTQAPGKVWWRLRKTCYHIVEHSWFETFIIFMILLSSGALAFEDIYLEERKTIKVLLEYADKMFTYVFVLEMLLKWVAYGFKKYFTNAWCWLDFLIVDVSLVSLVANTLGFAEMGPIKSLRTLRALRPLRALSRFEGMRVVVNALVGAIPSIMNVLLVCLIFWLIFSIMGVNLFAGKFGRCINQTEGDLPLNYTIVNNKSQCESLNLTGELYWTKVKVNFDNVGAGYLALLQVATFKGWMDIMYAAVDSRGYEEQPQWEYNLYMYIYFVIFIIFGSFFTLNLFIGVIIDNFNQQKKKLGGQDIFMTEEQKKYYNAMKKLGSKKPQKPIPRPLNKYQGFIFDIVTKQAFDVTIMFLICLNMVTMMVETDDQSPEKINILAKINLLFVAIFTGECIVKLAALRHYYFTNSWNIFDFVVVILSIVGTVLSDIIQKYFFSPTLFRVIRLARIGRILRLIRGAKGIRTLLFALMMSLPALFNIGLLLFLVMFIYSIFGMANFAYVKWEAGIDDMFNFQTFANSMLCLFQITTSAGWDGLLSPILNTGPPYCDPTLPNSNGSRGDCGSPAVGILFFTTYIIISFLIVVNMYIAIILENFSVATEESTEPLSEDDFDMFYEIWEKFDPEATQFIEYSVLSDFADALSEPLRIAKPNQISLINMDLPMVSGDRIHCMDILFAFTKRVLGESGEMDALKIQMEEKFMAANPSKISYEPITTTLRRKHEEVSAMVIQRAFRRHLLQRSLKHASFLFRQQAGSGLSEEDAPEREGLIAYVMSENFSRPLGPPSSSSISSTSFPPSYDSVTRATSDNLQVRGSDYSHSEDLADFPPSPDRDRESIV

| IC50 (human Nav1.7; [2]) [µM] | IC50 (human Nav1.7; [4]) [µM] | SMILES | IC50 (human Nav1.5; [1]) [µM] | IC50 (human Nav1.5; [3]) [µM] |
| --- | --- | --- | --- | --- |
| – | < 1 | O=C(N[C@H]1COc2ccc(C(F)(F)F)cc2C1)c1cc2n(n1)CCC(C(F)F)O2 (mixture of isomers) [Example 160, 5-(difluoromethyl)-N—((R)-6-(trifluoromethyl)chroman-3-yl)-6,7-dihydro-5H-pyrazolo[5,1-b][1,3]oxazine-2-carboxamide] | – | ≥ 3 |
| – | < 1 | CC(C)(F)C1CCn2nc(C(=O)N[C@H]3COc4ccc(C#N)cc4C3)cc2O1 (stereo partly drawn) [Example 540] | – | 1 to 3 |
| – | < 10 | CC1CCn2nc(C(=O)N[C@H]3COc4ccc(COCC(F)(F)F)cc4C3)cc2OC1 (stereo partly drawn) [Example 543] | – | ≥ 3 |
| < 1 | – | O=C(N[C@H]1COc2ccc(Cl)cc2C1)c1cc2n(n1)CCC(COc1ccccn1)O2 (stereo partly drawn) [Example 117] | < 1 | – |
| – | < 1 | N#Cc1ccc2c(c1)C[C@@H](NC(=O)c1cc3n(n1)CCN(Cc1ccccc1F)C3)CO2 [Example 497] | – | ≥ 3 |
| – | < 1 | O=C(NC1COc2cccc(F)c2C1)c1cc2n(n1)CCC(c1ccccc1)O2 (stereo not drawn) [Example 356] | – | ≥ 3 |
| – | < 1 | N#Cc1ccc(-c2ccc3c(c2)C[C@@H](NC(=O)c2cc4n(n2)CCC(C(F)(F)F)O4)CO3)cn1 (stereo partly drawn) [Example 174] | – | ≥ 3 |
| – | < 1 | O=C(N[C@H]1COc2ccc(CC(F)F)cc2C1)c1cc2n(n1)CCC(C(F)(F)F)O2 (single isomer, unassigned) [173 (isomer A)] | – | ≥ 3 |
| – | < 10 | O=C(N[C@H]1COc2ccc(Cl)cc2C1)c1cc2n(n1)CCC(C(F)F)O2 (stereo partly drawn) [Example 157] | – | ≥ 3 |
| – | < 10 | Cn1cc(-c2ccc3c(c2)C[C@@H](NC(=O)c2cc4n(n2)CC(CCOC(F)F)O4)CO3)cn1 (single isomer, unassigned) [221 (isomer A)] | – | ≥ 3 |
| < 10 | – | O=C(N[C@H]1COc2ccc(-c3ccccn3)cc2C1)c1cc2n(n1)CCC(COCC(F)(F)F)O2 (stereo partly drawn) [Example 130] | ≥ 3 | – |
| – | < 1 | O=C(N[C@H]1COc2ccc(Cl)cc2C1)c1cc2n(n1)CC(CCNCC(F)(F)F)O2 (stereo partly drawn) [Example 225] | – | 1 to 3 |
| – | < 10 | O=C(N[C@H]1COc2ccc(CC(F)F)cc2C1)c1cc2n(n1)CCC(C(F)(F)F)O2 (stereo partly drawn) [Example 172] | – | ≥ 3 |
| – | < 10 | O=C(N[C@H]1COc2ccc(Cl)cc2C1)c1cc2n(n1)CCC(c1cccnc1)O2 (stereo partly drawn) [Example 358] | – | ≥ 3 |
| – | < 1 | N#Cc1ccc2c(c1)C[C@@H](NC(=O)c1cc3n(n1)CCC(CSC(F)(F)F)O3)CO2 (single isomer, unassigned) [156 (isomer A)] | – | ≥ 3 |
| – | < 1 | O=C(N[C@H]1COc2ccc(-c3cnccn3)cc2C1)c1cc2n(n1)CCC(COCC1CC1)O2 (stereo partly drawn) [Example 425] | – | ≥ 3 |
| – | < 1 | O=C(N[C@H]1COc2ccc(CCOC(F)F)cc2C1)c1cc2n(n1)CCC(COC(F)F)O2 (single isomer, unassigned) [142 (isomer B)] | – | ≥ 3 |
| – | < 10 | O=C(N[C@H]1COc2ccc(CCN3CC(F)(F)C3)cc2C1)c1cc2n(n1)CCC(C(F)(F)F)O2 (stereo partly drawn) [Example 401] | – | ≥ 3 |
| – | < 1 | CC1(C)CCn2nc(C(=O)N[C@H]3COc4ccc(Cl)cc4C3)cc2O1 [Example 177] | – | 1 to 3 |
| < 1 | – | O=C(N[C@H]1COc2ccc(CC(F)F)cc2C1)c1cc2n(n1)CCC(COC(F)(F)F)O2 (stereo partly drawn) [Example 135] | 1 to 3 | – |
| – | < 1 | N#Cc1ccc2c(c1)C[C@@H](NC(=O)c1cc3n(n1)CC(CCOCC1CC1)O3)CO2 (single isomer, unassigned) [202 (isomer A)] | – | ≥ 3 |
| – | < 1 | CC1(C)CCn2nc(C(=O)N[C@H]3COc4ccc(-c5ccccn5)cc4C3)cc2O1 [Example 383] | – | ≥ 3 |
| – | < 10 | Cn1ccc(-c2ccc3c(c2)C[C@@H](NC(=O)c2cc4n(n2)CCC(COCC2CC2)O4)CO3)n1 (stereo partly drawn) [Example 426] | – | ≥ 3 |
| – | < 1 | O=C(N[C@H]1COc2ccc(-c3cnccn3)cc2C1)c1cc2n(n1)CC(CCOC(F)F)O2 (single isomer, unassigned) [223 (isomer B)] | – | 1 to 3 |
| < 1 | – | N#Cc1ccc2c(c1)C[C@@H](NC(=O)c1cc3n(n1)CCC(COC(F)(F)F)O3)CO2 (mixture of isomers) [Example 133, N—((R)-6-cyanochroman-3-yl)-5-((trifluoromethoxy)methyl)-6,7-dihydro-5H-pyrazolo[5,1-b][1,3]oxazine-2-carboxamide] | 1 to 3 | – |

Continued, compound first:

| SMILES | IC50 (human Nav1.7; [2]) [µM] | IC50 (human Nav1.7; [4]) [µM] | IC50 (human Nav1.5; [1]) [µM] | IC50 (human Nav1.5; [3]) [µM] |
| --- | --- | --- | --- | --- |
| O=C(N[C@H]1COc2ccc(COCC(F)(F)F)cc2C1)c1cc2n(n1)CCC(COCC(F)(F)F)O2 (mixture of isomers) [Example 128, 5-((2,2,2-trifluoroethoxy)methyl)-N—((R)-6-((2,2,2-trifluoroethoxy)methyl)chroman-3-yl)-6,7-dihydro-5H-pyrazolo[5,1-b][1,3]oxazine-2-carboxamide] | < 1 | – | 1 to 3 | – |
| N#Cc1ccc2c(c1)C[C@@H](NC(=O)c1cc3n(n1)CCN(Cc1ccccc1C(F)(F)F)C3)CO2 [Example 499] | – | < 1 | – | 1 to 3 |
| O=C(N[C@H]1COc2ccc(Cl)cc2C1)c1cn2c(n1)CCC(OCC(F)(F)F)C2 (single isomer, unassigned) [39 (isomer B)] | < 10 | – | ≥ 3 | – |
| O=C(c1cn2c(n1)CCC(C(F)(F)F)C2)N(Cc1ccccc1)C1COc2ccc(Br)cc2C1 (stereo not drawn) [Example 298] | – | < 1 | – | 1 to 3 |
| O=C(N[C@H]1COc2ccc(COCC(F)(F)F)cc2C1)c1cc2n(n1)CC(CCOCC(F)F)O2 (single isomer, unassigned) [224 (isomer B)] | – | < 1 | – | 1 to 3 |
| O=C(N[C@H]1COc2ccc(CC(F)F)cc2C1)c1cc2n(n1)CC(COC(F)(F)F)O2 (single isomer, unassigned) [198 (isomer B)] | – | < 1 | – | ≥ 3 |
| O=C(N[C@H]1COc2ccc(Cl)cc2C1)c1cn2c(n1)CCC(OCC(F)(F)F)C2 (single isomer, unassigned) [39 (isomer A)] | < 10 | – | 1 to 3 | – |
| CN1Cc2nc(C(=O)NC3COc4ccccc4C3)cn2CC1c1ccccc1 (stereo not drawn) [Example 57] | < 1 | – | < 1 | – |
| O=C(N[C@H]1COc2ccc(C(F)(F)F)cc2C1)c1cc2n(n1)CC(CCNCC(F)(F)F)O2 (stereo partly drawn) [Example 229] | – | < 1 | – | 1 to 3 |
| COc1cccc(OC2CCN(C(=O)c3cn4c(n3)CCC(C3CCCC3)C4)C2)n1 (stereo not drawn) [Example 28] | < 10 | – | ≥ 3 | – |
| O=C(N[C@H]1COc2ccc(COCC(F)(F)F)cc2C1)c1cc2n(n1)CC(COCC1CC1)O2 (single isomer, unassigned) [186 (isomer A)] | – | < 10 | – | ≥ 3 |
| O=C(NC1COc2cccc(C(F)F)c2C1)c1cn2c(n1)CCC(C(F)(F)F)C2 (stereo not drawn) [Example 292] | – | < 1 | – | 1 to 3 |
| O=C(N[C@H]1COc2ccc(COCC(F)(F)F)cc2C1)c1cc2n(n1)CCC(CCOC(F)F)O2 (stereo partly drawn) [Example 149] | – | < 1 | – | 1 to 3 |
| N#Cc1ccc2c(c1)C(F)[C@@H](NC(=O)c1cc3n(n1)CCC(COCC1CC1)O3)CO2 (single isomer, unassigned) [617 (isomer A)] | – | < 1 | – | ≥ 3 |
| CCOc1cccc(CCNC(=O)c2cc3n(n2)CCC(c2ccccc2)O3)c1 (stereo not drawn) [Example 79] | < 10 | – | ≥ 3 | – |
| N#Cc1ccc2c(c1)C[C@@H](NC(=O)c1cc3n(n1)CC(CCCOCC(F)(F)F)O3)CO2 (single isomer, unassigned) [246 (isomer A)] | – | < 1 | – | 1 to 3 |
| O=C(N[C@H]1COc2ccc(C(F)(F)F)cc2C1)c1nc2n(c1-c1ccccn1)CCOC2 [Example 67] | < 1 | – | < 1 | – |
| O=C(N[C@H]1COc2ccc(CC(F)F)cc2C1)c1cc2n(n1)CC(CCOCC(F)(F)F)O2 (stereo partly drawn) [Example 466] | – | < 1 | – | 1 to 3 |
| CN(CCc1cccc(C(F)(F)F)c1)C(=O)c1cn2c(n1)CN(C)C(c1ccccc1)C2 (stereo not drawn) [Example 332] | – | < 10 | – | ≥ 3 |
| O=C(N[C@H]1COc2ccccc2C1)c1cn2c(n1)CNC(C1CCCC1)C2 (stereo partly drawn) [Example 59] | < 10 | – | ≥ 3 | – |
| N#Cc1ccc2c(c1)C[C@@H](NC(=O)c1cc3n(n1)CC(CSCC(F)(F)F)O3)CO2 (stereo partly drawn) [Example 199] | – | < 10 | – | ≥ 3 |
| O=C(N[C@H]1COc2ccc(C(F)(F)F)cc2C1O)c1cc2n(n1)CC(CCCOCC(F)(F)F)O2 (single isomer, unassigned) [616 (isomer A)] | – | < 1 | – | 1 to 3 |
| COc1ncc(C(F)(F)F)cc1C1CCc2nc(C(=O)N3CCOC(c4ccc(F)cc4F)C3)cn2C1 (stereo not drawn) [Example 32] | < 10 | – | 1 to 3 | – |
| O=C(N[C@H]1COc2ccc(C(F)(F)F)cc2C1)c1cc2n(n1)CC(CCNCC(F)(F)F)O2 (single isomer, unassigned) [230 (isomer A)] | – | < 1 | – | ≥ 3 |
| O=C(N[C@H]1COc2ccc(COCC(F)(F)F)cc2C1)c1cc2n(n1)CC(CCNCC(F)(F)F)O2 (single isomer, unassigned) [232 (isomer A)] | – | < 1 | – | 1 to 3 |
| O=C(N[C@H]1COc2ccc(COCC(F)(F)F)cc2C1)c1cc2n(n1)CC(COC(F)(F)F)O2 (single isomer, unassigned) [196 (isomer B)] | – | < 1 | – | ≥ 3 |

— patent publication US12421225B2, “Heteroaromatic amide derivative and medicament containing the same” (KAKEN PHARMACEUTICAL CO., LTD., priority 2018, dated 2025)
